Test results from patent US20020035038A1, “Fungicidal combinations comprising thieno[2,3-d]pyrimidin-4-one” (priority 1998, published 2002).

System: Erysiphe graminis f.sp. hordei
Assay: Leaf-disc-test, efficacy against Erysiphe graminis f.sp. hordei on barley (Example B-2 c)
Format: in vivo
Settings: single active ingredient, curative application 2 days after inoculation, barley leaf segments, infection in control: 68%
Description: A synergistic effect exists whenever the action of an active ingredient combination is greater than the sum of the actions of the individual components. The action to be expected E for a given active ingredient combination obeys the so-called COLBY formula and can be calculated as follows (COLBY, S. R. “Calculating synergistic and antagonistic responses of herbicide combination”. Weeds, Vol. 15, pages 20-22; 1967): According to Colby, the expected (additive) action of active ingredients I+II using p+q ppm of active ingredient is [formula] If the action actually observed (O) is greater than the expected action (E), then the action of the combination is superadditive, i.e. there is a synergistic effect. Efficacy Against Erysiphe graminis f.sp. hordei on Barley c) Leaf-disc-test Barley plants, cv. “Hasso” were cultivated under greenhouse conditions at 20° C. in TKS-1 standard soil for 10 days. Leaf segments with a length of 10 mm were cut out of the primary leaves and were placed with the upper side up in multiple well plates (24 wells per plate). Each well contains 2 ml of 0.2% water agar+35 ppm benzimidazole. The fungicide treatment was carried out 2 days after inoculation (curative-application) by a total volume of 400 μl that were sprayed with an “air brush” on 4 leaf segments meaning 4 replicates. The inoculated leaf segments were incubated for 1 week in an incubation chamber by 18° C., the first two days in the dark, and the five next days by 12 hours light. After the incubation period, the % leaf attack was estimated with the help of a binocular and the % activity was calculated relative to the check.

## CC(C1CC1)C(O)(Cn1cncn1)c1ccc(Cl)cc1 (stereo not drawn) [cyproconazole]
conc. 0.0025 %
  % activity observed: 36%

## CC1COC(Cn2cncn2)(c2ccc(Oc3ccc(Cl)cc3)cc2Cl)O1 (stereo not drawn) [difenoconazole]
conc. 0.01 %
  % activity observed: 0%
conc. 0.025 %
  % activity observed: 41%
